Data reported in patent US20250134095A1, “COMPOSITIONS FOR ORGAN AND TISSUE PRESERVATION” (Albert Einstein College of Medicine, priority 2021, published 2025).
“Also recorded” adds a separate entry of the source. Peptide text beside a SMILES is read from it. * marks the point of attachment. Cbz = O=C(OCc1ccccc1)*; CH2F = FC*

Key:
mouse kidneys = experiment: TUNEL staining for cell death in cold stored mouse kidneys; conditions: 2 mg/kg total mouse weight in University of Wisconsin cold preservation solution, flush at organ recovery and storage, 72 hours cold storage
From the text: (§1) Methods: TUNEL Staining and Quantification. Frozen kidney sections were fixed with 4% paraformaldehyde and stained according to standard protocols for the In Situ Cell Death Detection Kit, TMR red (Millipore Sigma). The number of DAPI positive and TUNEL positive cells were quantified using cell counter macros in ImageJ across mouse, pig, and human samples.
(§2) Murine and Porcine Kidney Recoveries. Mouse and pig kidneys were recovered using standard organ recovery protocols. Prior to flushing the abdominal cavity with preservation solution, mice and pigs were given heparin to help increase flow and prevent clotting within the system.
Bax KO or Wildtype mice (3× per group) were euthanized and then organs recovered following standard organ transplant procedures. […] At the proscribed time points, kidneys were snap frozen for subsequent cell death assessment by fluorescent TUNEL staining of frozen sections collected on an EVOS2 scope. Quantification of TUNEL staining was performed with custom matlab code following standard image analysis procedures.
(§3) Mice were flushed with BAI supplemented University of Wisconsin solution (2 mg/kg total mouse weight) at time of organ recovery. Mouse kidneys were stored in the same concentration of BAI1 supplemented preservation solution that was used to flush the mice at time of organ harvest. Pig kidneys were flushed with 500 mL of University of Wisconsin solution supplemented with BAI1 at 10 μg/mL. They were then stored at 4° C. in 500 mL of University of Wisconsin solution supplemented with BAI1 at 10 μg/mL for 72 hours.

pig kidneys = experiment: TUNEL staining for cell death in cold stored pig kidneys; conditions: flushed and stored at 4° C. in University of Wisconsin solution with 10 μg/mL, 72 hours
From the text: as §1, §2, §3

human organ culture = experiment: Cell death in human organ culture model (kidney)
Protocol: as §1
To better appreciate how kidneys respond to cold ischemia, a series of […] kidneys was biopsied at times from 12 to 72 hours of cold storage. To decreased observed cell death, a Bax inhibitor (BAI1) was tested in a human organ culture model.
To assess the extent of cell death during cold preservation, a series of eleven human kidneys were repeatedly biopsied at times from 12 to 72 hours of cold storage. […] Cell death increased over time and became apparent in marginal donors between 30-36 hours of cold storage. Human kidneys with the cell death phenotype were also shown to have distinct upregulation of metabolites (e.g. xylose, isothreonic acid, 3-hydroxy-3-methylglutaric acid, conduritol-beta-epoxide, hippuric acid, pseudo uridine, hydroxyproline dipeptide, 4-hydroxyhippuric acid) as compared to the younger, healthier cohort of organs.

Row | SMILES | cell death during prolonged cold storage (TUNEL staining) (mouse kidneys) | cell death during prolonged cold storage (TUNEL staining) (pig kidneys) | cell death in human organ culture after a period of warm injury (human organ culture; after a period of warm injury) | cell death in human organ culture during cold storage (human organ culture; during cold storage)
1 | CN1C(=O)C(Cc2c[nH]c3ccccc23)NC1=S (stereo not shown) [necrostatin-1] | did not appear to reduce the amount of cell death |  |  | 
2 | COC(=O)C[C@H](NC(=O)[C@H](C)NC(=O)[C@@H](NC(=O)OCc1ccccc1)C(C)C)C(=O)CF [Z-VAD-FMK] (Cbz-Val-Ala-Asp(OMe)-CH2F) | did not appear to reduce the amount of cell death |  |  | 
3 | CCOC(=O)c1ccc(NC2CCCCC2)c(N)c1 [ferrostatin-1] | did not appear to reduce the amount of cell death |  |  | 
4 | OC(CN1CCNCC1)Cn1c2ccc(Br)cc2c2cc(Br)ccc21 (stereo not shown) [BAI1] | prevents cell death; also recorded: abrogates cell death | prevents cell death | significantly decreased cell death | significantly decreased cell death
